According to US20030022821A1, “Bioactive peptides” (priority 1998, published 2003):
In brackets after ≈: the same amount, converted by molar mass. Read-outs that look alike come from different tables or passages of the source. Square brackets hold non-standard residues; d marks the D form. Ends that are not written are not given here. Peptide text beside a SMILES is read from it. * marks the point of attachment. Trp(2-Pmc) = Cc1c(C)c(S(=O)(=O)c2[nH]c3ccccc3c2C[C@H](N)C(=O)O)c(C)c2c1OC(C)(C)CC2; Acm = CC(=O)NC*

Experiments:
[1] = test system: Escherichia coli ATCC 25922; type: cell-based
Experimental: (§1) The bacterial strains used were: Escherichia coli ATCC 25922 and Staphylococcus aureus ATCC 25923. All strains were stored at −70° C. The bacteria were grown in 2% Bacto Peptone water (Difco 1807-17-4). All tests were performed with bacteria in mid-logarithmic growth phase. Determination of the minimum inhibitory concentration (MIC) of the peptides for bacterial strains were performed in 1% Bacto Peptone water. A standard microdilution technique with an inoculum of 2×10^6 CFU/ml was used. All assays were performed in triplets. Since the peptides are positively charged and therefore could adhere to the plastic wells, we controlled the actual concentration of the peptides in the solution by HPLC. There was no difference between the concentration of the peptides before or after adding the solution to the plastic wells.

[2] = test system: Staphylococcus aureus ATCC 25923; type: cell-based
Experimental: as §1

| MIC E. coli ([1]; ATCC 25922) [µg/mL] | MIC S. aureus ([2]; ATCC 25923) [µg/mL] | Compound | other results |
| --- | --- | --- | --- |
| – | – | CSCC[C@H](NC(=O)[C@H](CCCNC(=N)N)NC(=O)[C@H](Cc1c[nH]c2ccccc12)NC(=O)[C@H](CCC(N)=O)NC(=O)[C@H](Cc1c[nH]c2ccccc12)NC(=O)[C@H](CCCNC(=N)N)NC(=O)[C@H](CCCNC(=N)N)NC(=O)[C@H](CSCNC(C)=O)NC(=O)[C@@H](N)CCCCN)C(=O)N[C@@H](CCCCN)C(=O)N[C@@H](CCCCN)C(=O)N[C@@H](CC(C)C)C(=O)NCC(=O)N[C@@H](C)C(=O)O [LFB 18-31] (H-KC(Acm)RRWQWRMKKLGA-OH; N-terminus assumed) | MIC E. coli ATCC 25922 ([1]; ATCC 25922): 80 µg/mL; MIC E. coli ATCC 25922 ([1]; Table 1, value in brackets): 43 µM; MIC E. coli ([1]; Table 11): 80 µg/mL (≈ 41.7 µM); MIC S. aureus ATCC 25923 ([2]; ATCC 25923): 200 µg/mL; MIC S. aureus ATCC 25923 ([2]; Table 1, value in brackets): 108 µM; MIC S. aureus ([2]; Table 11): 200 µg/mL (≈ 104 µM) |
| 200 (≈ 112 µM) | >250 | CSCC[C@H](NC(=O)[C@H](CCCNC(=N)N)NC(=O)[C@H](Cc1c[nH]c2ccccc12)NC(=O)[C@H](CCC(N)=O)NC(=O)[C@H](Cc1c[nH]c2ccccc12)NC(=O)[C@H](CCCNC(=N)N)NC(=O)[C@H](CCCNC(=N)N)NC(=O)[C@@H](N)CSCNC(C)=O)C(=O)N[C@@H](CCCCN)C(=O)N[C@@H](CCCCN)C(=O)N[C@@H](CC(C)C)C(=O)NCC(=O)N[C@@H](C)C(=O)O [LFB 19-31] (H-C(Acm)RRWQWRMKKLGA-OH; N-terminus assumed) | MIC E. coli ATCC 25922 ([1]; ATCC 25922): 200 µg/mL; MIC E. coli ATCC 25922 ([1]; Table 1, value in brackets): 120 µM; MIC S. aureus ATCC 25923 ([2]; ATCC 25923): > 250 µg/mL; MIC S. aureus ATCC 25923 ([2]; Table 1, value in brackets): > 150 µM |
| 70 (≈ 35.2 µM) | >200 | CSCC[C@H](NC(=O)[C@H](CCCNC(=N)N)NC(=O)[C@H](Cc1c[nH]c2ccccc12)NC(=O)[C@H](CCC(N)=O)NC(=O)[C@H](Cc1c[nH]c2ccccc12)NC(=O)[C@H](CCCNC(=N)N)NC(=O)[C@H](CCCNC(=N)N)NC(=O)[C@H](CSCNC(C)=O)NC(=O)[C@H](CCCCN)NC(=O)[C@H](C)N)C(=O)N[C@@H](CCCCN)C(=O)N[C@@H](CCCCN)C(=O)N[C@@H](CC(C)C)C(=O)NCC(=O)N[C@@H](C)C(=O)O [LFB A1] (H-AKC(Acm)RRWQWRMKKLGA-OH) | – |
| 80 (≈ 39.8 µM) | >200 | CSCC[C@H](NC(=O)[C@H](CCCNC(=N)N)NC(=O)[C@H](Cc1c[nH]c2ccccc12)NC(=O)[C@H](CCC(N)=O)NC(=O)[C@H](Cc1c[nH]c2ccccc12)NC(=O)[C@H](CCCNC(=N)N)NC(=O)[C@H](CCCNC(=N)N)NC(=O)[C@H](CSCNC(C)=O)NC(=O)[C@H](C)NC(=O)[C@@H](N)Cc1ccccc1)C(=O)N[C@@H](CCCCN)C(=O)N[C@@H](CCCCN)C(=O)N[C@@H](CC(C)C)C(=O)NCC(=O)N[C@@H](C)C(=O)O [LFB A2] (H-FAC(Acm)RRWQWRMKKLGA-OH) | – |
| – | >200 | CSCC[C@H](NC(=O)[C@H](CCCNC(=N)N)NC(=O)[C@H](Cc1c[nH]c2ccccc12)NC(=O)[C@H](CCC(N)=O)NC(=O)[C@H](Cc1c[nH]c2ccccc12)NC(=O)[C@H](CCCNC(=N)N)NC(=O)[C@H](C)NC(=O)[C@H](CSCNC(C)=O)NC(=O)[C@H](CCCCN)NC(=O)[C@@H](N)Cc1ccccc1)C(=O)N[C@@H](CCCCN)C(=O)N[C@@H](CCCCN)C(=O)N[C@@H](CC(C)C)C(=O)NCC(=O)N[C@@H](C)C(=O)O [LFB A4] (H-FKC(Acm)ARWQWRMKKLGA-OH) | – |
| 120 (≈ 60.6 µM) | >200 | CSCC[C@H](NC(=O)[C@H](CCCNC(=N)N)NC(=O)[C@H](Cc1c[nH]c2ccccc12)NC(=O)[C@H](CCC(N)=O)NC(=O)[C@H](Cc1c[nH]c2ccccc12)NC(=O)[C@H](C)NC(=O)[C@H](CCCNC(=N)N)NC(=O)[C@H](CSCNC(C)=O)NC(=O)[C@H](CCCCN)NC(=O)[C@@H](N)Cc1ccccc1)C(=O)N[C@@H](CCCCN)C(=O)N[C@@H](CCCCN)C(=O)N[C@@H](CC(C)C)C(=O)NCC(=O)N[C@@H](C)C(=O)O [LFB A5] (H-FKC(Acm)RAWQWRMKKLGA-OH) | – |
| 25 (≈ 11.3 µM) | 17.5 (≈ 7.89 µM) | CSCC[C@H](NC(=O)[C@H](CCCNC(=N)N)NC(=O)[C@H](Cc1c(S(=O)(=O)c2c(C)c(C)c3c(c2C)CCC(C)(C)O3)[nH]c2ccccc12)NC(=O)[C@H](CCC(N)=O)NC(=O)[C@H](C)NC(=O)[C@H](CCCNC(=N)N)NC(=O)[C@H](CCCNC(=N)N)NC(=O)[C@H](CSCNC(C)=O)NC(=O)[C@H](CCCCN)NC(=O)[C@@H](N)Cc1ccccc1)C(=O)N[C@@H](CCCCN)C(=O)N[C@@H](CCCCN)C(=O)N[C@@H](CC(C)C)C(=O)NCC(=O)N[C@@H](C)C(=O)O [LFB A6 PMC] (H-FKC(Acm)RRAQ[Trp(2-Pmc)]RMKKLGA-OH) | – |
| 55 (≈ 27.8 µM) | >200 | CSCC[C@H](NC(=O)[C@H](C)NC(=O)[C@H](Cc1c[nH]c2ccccc12)NC(=O)[C@H](CCC(N)=O)NC(=O)[C@H](Cc1c[nH]c2ccccc12)NC(=O)[C@H](CCCNC(=N)N)NC(=O)[C@H](CCCNC(=N)N)NC(=O)[C@H](CSCNC(C)=O)NC(=O)[C@H](CCCCN)NC(=O)[C@@H](N)Cc1ccccc1)C(=O)N[C@@H](CCCCN)C(=O)N[C@@H](CCCCN)C(=O)N[C@@H](CC(C)C)C(=O)NCC(=O)N[C@@H](C)C(=O)O [LFB A9] (H-FKC(Acm)RRWQWAMKKLGA-OH) | – |
| 140 (≈ 69.8 µM) | >200 | CC(=O)NCSC[C@H](NC(=O)[C@H](CCCCN)NC(=O)[C@@H](N)Cc1ccccc1)C(=O)N[C@@H](CCCNC(=N)N)C(=O)N[C@@H](CCCNC(=N)N)C(=O)N[C@@H](Cc1c[nH]c2ccccc12)C(=O)N[C@@H](CCC(N)=O)C(=O)N[C@@H](Cc1c[nH]c2ccccc12)C(=O)N[C@@H](CCCNC(=N)N)C(=O)N[C@@H](C)C(=O)N[C@@H](CCCCN)C(=O)N[C@@H](CCCCN)C(=O)N[C@@H](CC(C)C)C(=O)NCC(=O)N[C@@H](C)C(=O)O [LFB A10] (H-FKC(Acm)RRWQWRAKKLGA-OH) | – |
| 70 (≈ 34.9 µM) | >200 | CSCC[C@H](NC(=O)[C@H](CCCNC(=N)N)NC(=O)[C@H](Cc1c[nH]c2ccccc12)NC(=O)[C@H](CCC(N)=O)NC(=O)[C@H](Cc1c[nH]c2ccccc12)NC(=O)[C@H](CCCNC(=N)N)NC(=O)[C@H](CCCNC(=N)N)NC(=O)[C@H](CSCNC(C)=O)NC(=O)[C@H](CCCCN)NC(=O)[C@@H](N)Cc1ccccc1)C(=O)N[C@@H](C)C(=O)N[C@@H](CCCCN)C(=O)N[C@@H](CC(C)C)C(=O)NCC(=O)N[C@@H](C)C(=O)O [LFB A11] (H-FKC(Acm)RRWQWRMAKLGA-OH) | – |
| 50 (≈ 24.9 µM) | >200 | CSCC[C@H](NC(=O)[C@H](CCCNC(=N)N)NC(=O)[C@H](Cc1c[nH]c2ccccc12)NC(=O)[C@H](CCC(N)=O)NC(=O)[C@H](Cc1c[nH]c2ccccc12)NC(=O)[C@H](CCCNC(=N)N)NC(=O)[C@H](CCCNC(=N)N)NC(=O)[C@H](CSCNC(C)=O)NC(=O)[C@H](CCCCN)NC(=O)[C@@H](N)Cc1ccccc1)C(=O)N[C@@H](CCCCN)C(=O)N[C@@H](C)C(=O)N[C@@H](CC(C)C)C(=O)NCC(=O)N[C@@H](C)C(=O)O [LFB A12] (H-FKC(Acm)RRWQWRMKALGA-OH) | – |
| 50 (≈ 24.7 µM) | >200 | CSCC[C@H](NC(=O)[C@H](CCCNC(=N)N)NC(=O)[C@H](Cc1c[nH]c2ccccc12)NC(=O)[C@H](CCC(N)=O)NC(=O)[C@H](Cc1c[nH]c2ccccc12)NC(=O)[C@H](CCCNC(=N)N)NC(=O)[C@H](CCCNC(=N)N)NC(=O)[C@H](CSCNC(C)=O)NC(=O)[C@H](CCCCN)NC(=O)[C@@H](N)Cc1ccccc1)C(=O)N[C@@H](CCCCN)C(=O)N[C@@H](CCCCN)C(=O)N[C@@H](C)C(=O)NCC(=O)N[C@@H](C)C(=O)O [LFB A13] (H-FKC(Acm)RRWQWRMKKAGA-OH) | – |
| 25 (≈ 11.9 µM) | 25 (≈ 11.9 µM) | CSCC[C@H](NC(=O)[C@H](CCCNC(=N)N)NC(=O)[C@H](Cc1c[nH]c2ccccc12)NC(=O)[C@H](CCC(N)=O)NC(=O)[C@H](Cc1ccc(-c2ccccc2)cc1)NC(=O)[C@H](CCCNC(=N)N)NC(=O)[C@H](CCCNC(=N)N)NC(=O)[C@H](CSCNC(C)=O)NC(=O)[C@H](CCCCN)NC(=O)[C@@H](N)Cc1ccccc1)C(=O)N[C@@H](CCCCN)C(=O)N[C@@H](CCCCN)C(=O)N[C@@H](CC(C)C)C(=O)NCC(=O)N[C@@H](C)C(=O)O [LFB Bip6] | – |
| 15 (≈ 7.13 µM) | 15 (≈ 7.13 µM) | CSCC[C@H](NC(=O)[C@H](CCCNC(=N)N)NC(=O)[C@H](Cc1ccc(-c2ccccc2)cc1)NC(=O)[C@H](CCC(N)=O)NC(=O)[C@H](Cc1c[nH]c2ccccc12)NC(=O)[C@H](CCCNC(=N)N)NC(=O)[C@H](CCCNC(=N)N)NC(=O)[C@H](CSCNC(C)=O)NC(=O)[C@H](CCCCN)NC(=O)[C@@H](N)Cc1ccccc1)C(=O)N[C@@H](CCCCN)C(=O)N[C@@H](CCCCN)C(=O)N[C@@H](CC(C)C)C(=O)NCC(=O)N[C@@H](C)C(=O)O [LFB Bip8] | – |
| – | – | CSCC[C@H](NC(=O)[C@H](CCCNC(=N)N)NC(=O)[C@H](CCCNC(=N)N)NC(=O)[C@H](CCC(N)=O)NC(=O)[C@H](Cc1c[nH]c2ccccc12)NC(=O)[C@H](CCC(N)=O)NC(=O)[C@H](Cc1ccc(O)cc1)NC(=O)[C@H](CSCNC(C)=O)NC(=O)[C@H](CCCCN)NC(=O)[C@@H](N)CO)C(=O)N[C@@H](CCCNC(=N)N)C(=O)N[C@@H](CCCCN)C(=O)N[C@@H](CC(C)C)C(=O)NCC(=O)N[C@@H](C)C(=O)O [Native LFG, SKCYQWQRRMRKLGA] (H-SKC(Acm)YQWQRRMRKLGA-OH; N-terminus assumed) | MIC E. coli ([1]; Table 4): 750 µg/mL (≈ 378 µM) |
| 10 | – | RWWRYWR-NH2 [LFM 18-24 R1, 7 W2,3, 6Y5NH2, ARG-TRP-TRP-ARG-TYR-TRP-ARG-CONH2] | MIC E. coli ([1]; Table 14, peptides with a proportion of D amino acids): 10 µg/mL |
